Assays:
[1] = Release of the hydroxyl compound by hydrolysis from a treated substrate (PAN fabric, cotton, paper); type: physicochemical; settings: for release of the active hydroxyl compound upon hydrolysis: concentrated aqueous formulation sprayed on cellulosic substrate (paper, cotton), air-dried
Method: After the treatment with the aqueous solution of the ester compound a slow release of the biologically active hydroxyl compound on the substrate starts through hydrolysis. The velocity of this process can easily be controlled through pH and/or temperature variations.
II.1 A sample of 15 g polyacrylonitrile (PAN) fabric (Dralon 5-4301), pretreated with a commercial wetting agent (TINOVETIN® JU, supplied by Ciba Specialty Chemicals) at 60° C. during 10 min and rinsed with cold water, is fixed on a support material and in an exhaust dyeing machine of type Ahiba treated with the following composition: • 7.5 ml aqueous Na2SO4 solution (100 g/l) • 2.25 ml aqueous sodium acetate solution (100 g/A) • 2.25 ml 80% acetic acid • 233.5 ml water • 3.0 ml cationic retarder (TINEGAL® MR, Ciba Specialty Chemicals) (100 g/l) • 1.5 ml aqueous solution of compound of formula (101) (100 g/l)
The temperature is kept at 98° C. for 20 min; the pH of the bath after cooling to room temperature is 4.7. The sample of PAN fabric is rinsed with cold water and subsequently dried in the air. The resulting PAN fabric contains the latent menthol.
(§1) II.5 A padding bath is prepared containing 20 g/l of compound (101) and is applied at 20-25° C. with a pick-up rate of 70-80% on cotton. After drying (65 to 15 s at 70-130° C.), the resulting fabric contains the latent menthol.
II.8 A concentrated aqueous formulation of compound (101) is sprayed on a cellulosic substrate (e.g. paper, cotton).

[2] = Antimicrobial protection of treated cotton fibre
Method: as §1
II.6 The same treatment is made on cotton using compound (102) in place of (101).
II.7 A cotton fabric is similarly treated with an aqueous formulation of compounds of formula (101) and (102).

[3] = cotton treated with aqueous formulation of (101) and (102) together
[4] = cotton, padding bath 20 g/l, 20-25° C., pick-up 70-80%

regeneration of menthol from treated fabric ([1]; PAN fabric, exhaust treatment 98° C. for 20 min, bath pH 4.7-5.2, velocity of release controlled by pH) | Structure (SMILES) | release of the active hydroxyl compound upon hydrolysis [1] | release of the active hydroxyl compound from treated fabric [1, 3] | release of the active hydroxyl compound from treated fabric [1, 4] | antimicrobial protection ([2]; cotton padded with compound (102) alone) | antimicrobial protection [2, 3]
gradually regenerated | CC1CCC(C(C)C)C(OC(=O)C[N+](C)(C)CCN(C)C)C1.[Cl-] (stereo not drawn) [compound 101] | releases menthol upon hydrolysis | slowly released | gradually regenerated |  | 
 | CN(C)CC[N+](C)(C)CC(=O)Oc1cc(Cl)ccc1Oc1ccc(Cl)cc1Cl.[Cl-] [compound 102] | releases triclosan upon hydrolysis | slowly released | slowly released | good antimicrobial protection over time | good antimicrobial protection over time

From patent US20060019565A1, “Method for delivering biologically active substnces” (priority 2002, published 2006)
